The source of these data is US20230365592A1 (Agios Pharmaceuticals, Inc., priority 2022, published 2023).

This experiment has as its target T1, human PAH with the R408W mutation (Homo sapiens, UniProt P00439, R408W).
T1 construct: expressed in transfected cells
T1 sequence (P00439 1-452 R408W): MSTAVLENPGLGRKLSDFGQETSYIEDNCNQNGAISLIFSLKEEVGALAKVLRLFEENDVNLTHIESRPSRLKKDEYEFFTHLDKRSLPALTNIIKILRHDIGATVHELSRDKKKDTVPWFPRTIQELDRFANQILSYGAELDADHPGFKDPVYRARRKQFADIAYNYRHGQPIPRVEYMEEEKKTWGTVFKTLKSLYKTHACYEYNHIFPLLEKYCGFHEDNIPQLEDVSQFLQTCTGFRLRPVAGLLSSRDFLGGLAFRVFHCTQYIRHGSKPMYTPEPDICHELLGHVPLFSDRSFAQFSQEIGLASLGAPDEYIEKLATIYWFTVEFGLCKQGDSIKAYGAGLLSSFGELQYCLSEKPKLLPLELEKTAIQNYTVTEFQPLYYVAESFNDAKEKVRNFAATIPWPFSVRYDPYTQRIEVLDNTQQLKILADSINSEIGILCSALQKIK
The experiment in a line: Cell Based Phenylalanine Flux Assay.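 Also: after compound treatment, cells received sepiapterin plus isotope-labelled Phenylalanine for 4 hours, then labelled Tyrosine in the medium was quantified, 10-point 2-fold dilution series run in duplicate.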 As to conditions: A375 cells expressing human R408W PAH; 24 hrs compound incubation; 13C-Tyrosine by LC-MS; average where tested multiple times; read-out: AC50.
The AC50 is the concentration giving half of the maximal activity seen. Regarding `O=C(c1cnn2cc(N3CCOCC3)ccc12)N1CCc2[nH]cnc2[C@H]1c1cc2c(C(F)(F)F)cccn2n1` [Example 1614, (S)-(6-morpholinopyrazolo[1,5-a]pyridin-3-yl)(4-(4-(trifluoromethyl)pyrazolo[1,5-a]pyridin-2-yl)-6,7-dihydro-1H-imidazo[4,5-c]pyridin-5(4H)-yl)methanone], the AC50 lay within 500 to 1000 nM.

With `Fc1cccn2nc([C@@H]3c4nc[nH]c4CCN3c3ncccn3)cc12` [Example 1616, (S)-4-(4-fluoropyrazolo[1,5-a]pyridin-2-yl)-5-(pyrimidin-2-yl)-4,5,6,7-tetrahydro-1H-imidazo[4,5-c]pyridine], the AC50 was below 500 nM.

`Fc1cccn2nc([C@H]3c4nc[nH]c4CCN3c3ncccn3)cc12` [Example 1617, (R)-4-(4-fluoropyrazolo[1,5-a]pyridin-2-yl)-5-(pyrimidin-2-yl)-4,5,6,7-tetrahydro-1H-imidazo[4,5-c]pyridine]: the AC50 is above 5000 nM.

Regarding `Cc1cccn2nc([C@@H]3c4nc[nH]c4CCN3c3ncccn3)cc12` [Example 1618, (S)-4-(4-methylpyrazolo[1,5-a]pyridin-2-yl)-5-(pyrimidin-2-yl)-4,5,6,7-tetrahydro-1H-imidazo[4,5-c]pyridine], the concentration at half-maximal activity (AC50) is below 500 nM.

For the compound `Cc1cccn2nc([C@H]3c4nc[nH]c4CCN3c3ncccn3)cc12` [Example 1619, (R)-4-(4-methylpyrazolo[1,5-a]pyridin-2-yl)-5-(pyrimidin-2-yl)-4,5,6,7-tetrahydro-1H-imidazo[4,5-c]pyridine], the AC50 is 1000 to 5000 nM.

For the compound `Cc1cccn2nc([C@H]3c4nc[nH]c4CCN3C(=O)c3cnn4cc(-c5ccn(C)n5)ccc34)cc12` [Example 1620, (R)-(6-(1-methyl-1H-pyrazol-3-yl)pyrazolo[1,5-a]pyridin-3-yl)(4-(4-methylpyrazolo[1,5-a]pyridin-2-yl)-6,7-dihydro-1H-imidazo[4,5-c]pyridin-5(4H)-yl)methanone], the AC50 was above 5000 nM.

In the case of `Cc1cccn2nc([C@@H]3c4nc[nH]c4CCN3C(=O)c3cnn4cc(-c5ccn(C)n5)ccc34)cc12` [Example 1621, (S)-(6-(1-methyl-1H-pyrazol-3-yl)pyrazolo[1,5-a]pyridin-3-yl)(4-(4-methylpyrazolo[1,5-a]pyridin-2-yl)-6,7-dihydro-1H-imidazo[4,5-c]pyridin-5(4H)-yl)methanone], the AC50 is below 500 nM.

With `Clc1cccn2nc([C@@H]3c4nc[nH]c4CCN3c3nnc(-c4ccccn4)o3)cc12` [Example 1623, (S)-2-(4-(4-chloropyrazolo[1,5-a]pyridin-2-yl)-6,7-dihydro-1H-imidazo[4,5-c]pyridin-5(4H)-yl)-5-(pyridin-2-yl)-1,3,4-oxadiazole], the AC50 is below 500 nM.

As for `FC(F)c1cccc2cc([C@@H]3c4nc[nH]c4CCN3c3nnc(-c4ccccn4)o3)nn12` [Example 1626, (S)-2-(4-(7-(difluoromethyl)pyrazolo[1,5-a]pyridin-2-yl)-6,7-dihydro-1H-imidazo[4,5-c]pyridin-5(4H)-yl)-5-(pyridin-2-yl)-1,3,4-oxadiazole], the half-maximal activity concentration (AC50) lay in the range of 500 to 1000 nM.

With `Cc1cccn2nc([C@@H]3c4nc[nH]c4CCN3C(=O)c3cnn4cc(-c5cnn(C)c5)ccc34)cc12` [Example 1630, (S)-(6-(1-methyl-1H-pyrazol-4-yl)pyrazolo[1,5-a]pyridin-3-yl)(4-(4-methylpyrazolo[1,5-a]pyridin-2-yl)-6,7-dihydro-1H-imidazo[4,5-c]pyridin-5(4H)-yl)methanone], the half-maximal activity concentration (AC50) fell in the range of 500 to 1000 nM.

Consider `Cn1ccc(-c2ccc3c(C(=O)N4CCc5[nH]cnc5[C@H]4c4cc5cccc(C(F)(F)F)n5n4)cnn3c2)n1` [Example 1632, (S)-(6-(1-methyl-1H-pyrazol-3-yl)pyrazolo[1,5-a]pyridin-3-yl)(4-(7-(trifluoromethyl)pyrazolo[1,5-a]pyridin-2-yl)-6,7-dihydro-1H-imidazo[4,5-c]pyridin-5(4H)-yl)methanone], for which the AC50 lay in the range of 500 to 1000 nM.

Turning to `CN(C)Cc1ccc2c(C(=O)N3CCc4[nH]cnc4[C@H]3c3cc4c(Cl)cccn4n3)cnn2c1` [Example 1634, (S)-(4-(4-chloropyrazolo[1,5-a]pyridin-2-yl)-6,7-dihydro-1H-imidazo[4,5-c]pyridin-5(4H)-yl)(6-((dimethylamino)methyl)pyrazolo[1,5-a]pyridin-3-yl)methanone], the concentration at half-maximal activity (AC50) was in the range of 500 to 1000 nM.

As to `Cc1cccn2nc([C@@H]3c4nc[nH]c4CCN3c3nnc(-c4ccccn4)o3)cc12` [Example 1637, (S)-2-(4-(4-methylpyrazolo[1,5-a]pyridin-2-yl)-6,7-dihydro-1H-imidazo[4,5-c]pyridin-5(4H)-yl)-5-(pyridin-2-yl)-1,3,4-oxadiazole], the half-maximal activity concentration (AC50) was below 500 nM.

Turning to `Cc1cccc2cc([C@@H]3c4nc[nH]c4CCN3c3nnc(-c4ccccn4)o3)nn12` [Example 1640, (S)-2-(4-(7-methylpyrazolo[1,5-a]pyridin-2-yl)-6,7-dihydro-1H-imidazo[4,5-c]pyridin-5(4H)-yl)-5-(pyridin-2-yl)-1,3,4-oxadiazole], the AC50 was in the range of 500 to 1000 nM.

For `Cc1cccn2nc([C@H]3c4nc[nH]c4CCN3c3nc4ccccc4o3)cc12` [Example 1642, (R)-2-(4-(4-methylpyrazolo[1,5-a]pyridin-2-yl)-6,7-dihydro-1H-imidazo[4,5-c]pyridin-5(4H)-yl)benzo[d]oxazole], the AC50 was above 5000 nM.

On to `Cc1cccn2nc([C@@H]3c4nc[nH]c4CCN3c3nc4ccccc4o3)cc12` [Example 1643, (S)-2-(4-(4-methylpyrazolo[1,5-a]pyridin-2-yl)-6,7-dihydro-1H-imidazo[4,5-c]pyridin-5(4H)-yl)benzo[d]oxazole], for which the concentration at half-maximal activity (AC50) is 500 to 1000 nM.

As to `O=C(c1cnn2cc(-c3ccccn3)ccc12)N1CCc2[nH]cnc2[C@H]1c1cc2c(F)cccn2n1` [Example 1644, (S)-(4-(4-fluoropyrazolo[1,5-a]pyridin-2-yl)-6,7-dihydro-1H-imidazo[4,5-c]pyridin-5(4H)-yl)(6-(pyridin-2-yl)pyrazolo[1,5-a]pyridin-3-yl)methanone], the half-maximal activity concentration (AC50) was below 500 nM.

In the case of `O=C(c1cnn2cc(-c3ccccn3)ccc12)N1CCc2[nH]cnc2[C@@H]1c1cc2c(F)cccn2n1` [Example 1645, (R)-(4-(4-fluoropyrazolo[1,5-a]pyridin-2-yl)-6,7-dihydro-1H-imidazo[4,5-c]pyridin-5(4H)-yl)(6-(pyridin-2-yl)pyrazolo[1,5-a]pyridin-3-yl)methanone], the AC50 was above 5000 nM.

Regarding `Cn1ccc(-c2ccc3c(C(=O)N4CCc5[nH]cnc5[C@H]4c4cc5c(F)cccn5n4)cnn3c2)n1` [Example 1646, (S)-(4-(4-fluoropyrazolo[1,5-a]pyridin-2-yl)-6,7-dihydro-1H-imidazo[4,5-c]pyridin-5(4H)-yl)(6-(1-methyl-1H-pyrazol-3-yl)pyrazolo[1,5-a]pyridin-3-yl)methanone], the AC50 was in the range of 500 to 1000 nM.

`Cn1ccc(-c2ccc3c(C(=O)N4CCc5[nH]cnc5[C@@H]4c4cc5c(F)cccn5n4)cnn3c2)n1` [Example 1647, (R)-(4-(4-fluoropyrazolo[1,5-a]pyridin-2-yl)-6,7-dihydro-1H-imidazo[4,5-c]pyridin-5(4H)-yl)(6-(1-methyl-1H-pyrazol-3-yl)pyrazolo[1,5-a]pyridin-3-yl)methanone]: the AC50 was above 5000 nM.

For `Cc1cccn2nc([C@@H]3c4nc[nH]c4CCN3C(=O)c3cnn4cc(-c5ccccn5)ccc34)cc12` [Example 1648, (S)-(4-(4-methylpyrazolo[1,5-a]pyridin-2-yl)-6,7-dihydro-1H-imidazo[4,5-c]pyridin-5(4H)-yl)(6-(pyridin-2-yl)pyrazolo[1,5-a]pyridin-3-yl)methanone], the AC50 lay within 500 to 1000 nM.

With `Cc1cccn2nc([C@H]3c4nc[nH]c4CCN3C(=O)c3cnn4cc(-c5ccccn5)ccc34)cc12` [Example 1649, (R)-(4-(4-methylpyrazolo[1,5-a]pyridin-2-yl)-6,7-dihydro-1H-imidazo[4,5-c]pyridin-5(4H)-yl)(6-(pyridin-2-yl)pyrazolo[1,5-a]pyridin-3-yl)methanone], the AC50 was above 5000 nM.

`COc1cccn2nc([C@@H]3c4nc[nH]c4CCN3C(=O)c3nnc(-c4ccn(C(F)(F)F)n4)o3)cc12` [Example 1652, (S)-(4-(4-methoxypyrazolo[1,5-a]pyridin-2-yl)-6,7-dihydro-1H-imidazo[4,5-c]pyridin-5(4H)-yl)(5-(1-(trifluoromethyl)-1H-pyrazol-3-yl)-1,3,4-oxadiazol-2-yl)methanone]: the AC50 was 500 to 1000 nM.

Regarding `COc1cccn2nc([C@H]3c4nc[nH]c4CCN3C(=O)c3nnc(-c4ccn(C(F)(F)F)n4)o3)cc12` [Example 1653, (R)-(4-(4-methoxypyrazolo[1,5-a]pyridin-2-yl)-6,7-dihydro-1H-imidazo[4,5-c]pyridin-5(4H)-yl)(5-(1-(trifluoromethyl)-1H-pyrazol-3-yl)-1,3,4-oxadiazol-2-yl)methanone], the AC50 was above 5000 nM.

In the case of `O=C(c1nnc(C2CC2)o1)N1CCc2[nH]cnc2[C@H]1c1cc2c(OC(F)F)cccn2n1` [Example 1654, (S)-(5-cyclopropyl-1,3,4-oxadiazol-2-yl)(4-(4-(difluoromethoxy)pyrazolo[1,5-a]pyridin-2-yl)-6,7-dihydro-1H-imidazo[4,5-c]pyridin-5(4H)-yl)methanone], the concentration at half-maximal activity (AC50) lay in the range of 500 to 1000 nM.

`O=C(c1nnc(-c2ncccc2F)o1)N1CCc2[nH]cnc2[C@@H]1c1cc2c(OC(F)F)cccn2n1` [Example 1656, (R)-(4-(4-(difluoromethoxy)pyrazolo[1,5-a]pyridin-2-yl)-6,7-dihydro-1H-imidazo[4,5-c]pyridin-5(4H)-yl)(5-(3-fluoropyridin-2-yl)-1,3,4-oxadiazol-2-yl)methanone]: the AC50 was above 5000 nM.
